From US5322698A, “Process for the preparation of a tablet or dragee composition containing a heat-, light- and moisture-sensitive active ingredient having monoclinic crystal structure” (priority 1990, dated 1994)
Structures can show the parent of a compound that is named as a salt. Where two headings read alike, the source gives them in different places. Values belong to the compound of their own block, whether it stands above or below them.

What was measured:
[1] = Clinical investigations: half life in blood and relative bioavailability; assay type: in vivo, human; conditions: for half-life: human, blood, read-out: half life measured in the blood (converted)
[2] = Storage experiments in the presence of moisture, heat and light load (wet-granulated tablets); assay type: physicochemical; conditions: in the wet-granulated tablet of Comparative Example 1
Text: The tablets obtained were subjected to storage experiments carried out in the presence of moisture and heat as well as light load.

[3] = antiarrhythmic reference drugs; Welling et al. 1985; cited from earlier work

relative bioavailability ([1]; composition according to the invention, clinical): about 80%
half-life ([1]; composition according to the invention): 3.2 h
half-life ([1]; injectable composition containing the same active ingredient): 2.4 h
Compound: Cc1cccc(C)c1NNC(=N)N(C)C [1-(2,6-Dimethylphenyl)-4,4'-dimethylaminoguanidine hydrochloride]

prevention of decomposition process by antioxidant [2]: could not be prevented by ascorbic acid
Compound: O=C1O[C@H]([C@@H](O)CO)C(O)=C1O [ascorbic acid]

Compound: C=C[C@H]1C[N@@]2CC[C@H]1C[C@@H]2[C@@H](O)c1ccnc2ccc(OC)cc12 [quinidine]
bioavailability [3]: 40 to 70%
